Data as given in patent publication US9561228B2 (Celgene Avilomics Research, Inc., priority 2013, dated 2017).
pEC50: −log10 of the molar value.

How the values were obtained:
[1] = system: ERK1/2 phosphorylation of p90RSK in A375 cells; assay: Detection of total and phosphor-RSK by MSD ELISA (A375); type: cell-based; conditions: Homo sapiens, A-375, read-out: ERK1/ERK2 PRSK A375 EC50
Method in brief: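 A375 cells serum-starved overnight in DMEM/0.1% FBS, then treated 2 h at 37° C with compound (1000× DMSO dilutions into medium). Lysates captured on RSK antibody-coated MSD plates; phospho-RSK (Ser380) and total RSK detected with SulfoTag secondary antibodies by electrochemiluminescence.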

[2] = biological target: T1, Erk1 (Homo sapiens, UniProt P27361); assay: Protein Mass Modification Assay (intact protein MALDI, 60 min, 10-fold excess of compound); type: binding
T1 construct: purchased Millipore 14-439
T1 sequence (P27361 whole entry): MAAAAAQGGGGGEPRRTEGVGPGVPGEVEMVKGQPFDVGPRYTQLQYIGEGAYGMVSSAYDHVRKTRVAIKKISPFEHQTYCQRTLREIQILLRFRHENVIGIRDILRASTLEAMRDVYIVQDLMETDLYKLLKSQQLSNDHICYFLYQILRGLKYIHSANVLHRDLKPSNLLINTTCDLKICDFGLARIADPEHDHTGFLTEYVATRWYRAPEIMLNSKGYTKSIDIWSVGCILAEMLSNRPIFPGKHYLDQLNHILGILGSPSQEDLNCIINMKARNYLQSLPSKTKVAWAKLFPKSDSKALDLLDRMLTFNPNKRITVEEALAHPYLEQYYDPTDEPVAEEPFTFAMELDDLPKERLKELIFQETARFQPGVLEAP
Method in brief: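 Human Erk1 was incubated 60 min at room temperature with a 10-fold molar excess of compound, then analysed as intact protein by MALDI with sinapinic acid matrix. The centroid mass shift versus untreated protein was divided by compound molecular weight to give percent modified protein.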

[3] = system: ERK1/2 phosphorylation of p90RSK in HT29 cells; assay: pRSK MSD Assay in HT29 cells; type: cell-based; conditions: Homo sapiens, HT-29, read-out: ERK1/ERK2 PRSK MSD HT29 EC50
Method in brief: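 Serum-starved HT29 cells (0.1% FBS overnight) treated with test compound for 120 min at 37° C, then lysed with protease and phosphatase inhibitors. Phospho-p90RSK quantified by MSD sandwich immunoassay: RSK capture antibody, phospho-RSK detection antibody plus Sulfo-tagged antibody, electrochemiluminescence read.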

Structure (SMILES) | pEC50 [1] | ERK1 Mass Mod (%) [2] | pEC50 [3]
C=CC(=O)Nc1cc(C)ccc1Nc1nc(Nc2ccnc3ccccc23)ncc1C(F)(F)F [Compound I-379, N-(5-methyl-2-((2-(quinolin-4-ylamino)-5-(trifluoromethyl)pyrimidin-4-yl)amino)phenyl)acrylamide] | > 7.00 | E (a mass modification of ≧70%) | > 7.00
C=CC(=O)Nc1cc(C)ccc1Nc1nc(Nc2nc(OC)ncc2C)ncc1C(F)(F)F [Compound I-347, N-(2-((2-((2-methoxy-5-methylpyrimidin-4-yl)amino)-5-(trifluoromethyl)pyrimidin-4-yl)amino)-5-methylphenyl)acrylamide] | 6.30 to 7.00 | E (a mass modification of ≧70%) | > 7.00
C=CC(=O)Nc1cc(CN2CCN(S(C)(=O)=O)CC2)ccc1Nc1nc(Nc2nc(OC)ncc2C)ncc1C(F)(F)F [Compound I-383, N-(2-((2-((2-methoxy-5-methylpyrimidin-4-yl)amino)-5-(trifluoromethyl)pyrimidin-4-yl)amino)-5-((4-(methylsulfonyl)piperazin-1-yl)methyl)phenyl)acrylamide] | < 6.00 | E (a mass modification of ≧70%) | > 7.00
C=CC(=O)Nc1cc(C)ccc1Nc1nc(Nc2nc(OC)ccc2Cl)ncc1C(F)(F)F [Compound I-360, N-(2-((2-((3-chloro-6-methoxypyridin-2-yl)amino)-5-(trifluoromethyl)pyrimidin-4-yl)amino)-5-methylphenyl)acrylamide] | 6.30 to 7.00 | E (a mass modification of ≧70%) | 6.30 to 7.00
C=CC(=O)Nc1cc(CN2CCN(C(=O)c3cccnc3)CC2)ccc1Nc1nc(Nc2nc(OC)ncc2C)ncc1C(F)(F)F [Compound I-392, N-(2-((2-((2-methoxy-5-methylpyrimidin-4-yl)amino)-5-(trifluoromethyl)pyrimidin-4-yl)amino)-5-((4-nicotinoylpiperazin-1-yl)methyl)phenyl)acrylamide] | < 6.00 | E (a mass modification of ≧70%) | 6.00 to 6.30
C=CC(=O)Nc1cc(OCC(N)=O)ccc1Nc1nc(NC2CCOCC2)ncc1C(F)(F)F [Compound I-387, N-(5-(2-amino-2-oxoethoxy)-2-((2-((tetrahydro-2H-pyran-4-yl)amino)-5-(trifluoromethyl)pyrimidin-4-yl)amino)phenyl)acrylamide] | 6.30 to 7.00 | E (a mass modification of ≧70%) | 6.30 to 7.00
C=CC(=O)Nc1cc(CN2CCN(C(C)=O)CC2)ccc1Nc1nc(Nc2cc(OC)ncc2C)ncc1C(F)(F)F [Compound I-381, N-(5-((4-acetylpiperazin-1-yl)methyl)-2-((2-((2-methoxy-5-methylpyridin-4-yl)amino)-5-(trifluoromethyl)pyrimidin-4-yl)amino)phenyl)acrylamide] | > 7.00 | E (a mass modification of ≧70%) | > 7.00
C=CC(=O)Nc1ccc(OCC(N)=O)cc1Nc1nc(NC2CCOCC2)ncc1C(F)(F)F [Compound I-395, N-(4-(2-amino-2-oxoethoxy)-2-((2-((tetrahydro-2H-pyran-4-yl)amino)-5-(trifluoromethyl)pyrimidin-4-yl)amino)phenyl)acrylamide] | < 6.00 | E (a mass modification of ≧70%) | < 6.00
C=CC(=O)Nc1cc(C)ccc1Nc1nc(Nc2cc(NCCOC)nc(OC)c2)ncc1C(F)(F)F [Compound I-294, N-(2-((2-((2-methoxy-6-((2-methoxyethyl)amino)pyridin-4-yl)amino)-5-(trifluoromethyl)pyrimidin-4-yl)amino)-5-methylphenyl)acrylamide] | > 7.00 | E (a mass modification of ≧70%) | > 7.00
C=CC(=O)Nc1cc(CN2CCN(C(=O)c3cccnc3)CC2)ccc1Nc1nc(Nc2cc(OC)ncc2C)ncc1C(F)(F)F [Compound I-389, N-(2-((2-((2-methoxy-5-methylpyridin-4-yl)amino)-5-(trifluoromethyl)pyrimidin-4-yl)amino)-5-((4-nicotinoylpiperazin-1-yl)methyl)phenyl)acrylamide] | > 7.00 | E (a mass modification of ≧70%) | > 7.00

Next, values leading:

pEC50 [1] | ERK1 Mass Mod (%) [2] | pEC50 [3] | Structure (SMILES)
< 6.00 | E (a mass modification of ≧70%) | 6.00 to 6.30 | C=CC(=O)Nc1cc(CN2CCN(C)CC2)ccc1Nc1nc(Nc2nc(OC)ncc2C)ncc1C(F)(F)F [Compound I-394, N-(2-((2-((2-methoxy-5-methylpyrimidin-4-yl)amino)-5-(trifluoromethyl)pyrimidin-4-yl)amino)-5-((4-methylpiperazin-1-yl)methyl)phenyl)acrylamide]
6.30 to 7.00 | E (a mass modification of ≧70%) | 6.30 to 7.00 | C=CC(=O)Nc1cc(C)ccc1Nc1nc(Nc2ncc(F)c(OC)n2)ncc1C(F)(F)F [Compound I-356, N-(2-((2-((5-fluoro-4-methoxypyrimidin-2-yl)amino)-5-(trifluoromethyl)pyrimidin-4-yl)amino)-5-methylphenyl)acrylamide]
6.30 to 7.00 | E (a mass modification of ≧70%) | 6.30 to 7.00 | C=CC(=O)Nc1cc(C(=O)N2CCN(S(C)(=O)=O)CC2)ccc1Nc1nc(Nc2cc(OC)ncc2C)ncc1C(F)(F)F [Compound I-401, N-(2-((2-((2-methoxy-5-methylpyridin-4-yl)amino)-5-(trifluoromethyl)pyrimidin-4-yl)amino)-5-(4-(methylsulfonyl)piperazine-1-carbonyl)phenyl)acrylamide]
6.30 to 7.00 | E (a mass modification of ≧70%) | > 7.00 | C=CC(=O)Nc1cc(C)ccc1Nc1nc(Nc2cc(OC)cnc2Cl)ncc1C(F)(F)F [Compound I-361, N-(2-((2-((2-chloro-5-methoxypyridin-3-yl)amino)-5-(trifluoromethyl)pyrimidin-4-yl)amino)-5-methylphenyl)acrylamide]
6.30 to 7.00 | F (a mass modification of 31-69%) | 6.30 to 7.00 | C=CC(=O)Nc1cc(C)ccc1Nc1nc(Nc2nc(OC)nc(OC)n2)ncc1C(F)(F)F [Compound I-371, N-(2-((2-((4,6-dimethoxy-1,3,5-triazin-2-yl)amino)-5-(trifluoromethyl)pyrimidin-4-yl)amino)-5-methylphenyl)acrylamide]
6.00 to 6.30 | E (a mass modification of ≧70%) | 6.00 to 6.30 | C=CC(=O)Nc1cc(CN2CCOCC2)ccc1Nc1nc(Nc2cc(OC)ncc2C)ncc1C(F)(F)F [Compound I-399, N-(2-((2-((2-methoxy-5-methylpyridin-4-yl)amino)-5-(trifluoromethyl)pyrimidin-4-yl)amino)-5-(morpholinomethyl)phenyl)acrylamide]
6.30 to 7.00 | E (a mass modification of ≧70%) | 6.30 to 7.00 | C=CC(=O)Nc1cc(C)ccc1Nc1nc(Nc2nc(OC)ncc2F)ncc1C(F)(F)F [Compound I-357, N-(2-((2-((5-fluoro-2-methoxypyrimidin-4-yl)amino)-5-(trifluoromethyl)pyrimidin-4-yl)amino)-5-methylphenyl)acrylamide]
